Assay results from patent US20230066011A1, “PYRROLOPYRIMIDINE DERIVATIVE, AND PHARMACEUTICAL COMPOSITION FOR PREVENTING OR TREATING PROTEIN KINASE-RELATED DISEASE COMPRISING SAME AS ACTIVE INGREDIENT” (VORONOI CO., LTD., priority 2019, published 2023).

What was measured:
human GST-DYRK1A = biological target: T1, human GST-DYRK1A (Homo sapiens, UniProt Q13627); experiment: GST-DYRK1A enzyme inhibition, ADP-Glo kinase assay; format: biochemical; conditions: ATP 10 μM, GST-DYRK1A full length, read-out: DYRK1 IC50
T1 construct: purified human GST-DYRK1A (full length, Thermo Scientifics) enzyme; purchased Thermo Scientifics
Outline: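 Full-length human GST-DYRK1A (10 ng) with 10 μM ATP and specific substrate in 40 mM Tris-HCl pH 7.4, 20 mM MgCl2, 0.5 mg/mL BSA, 50 μM DTT, 1 h at 25 °C. ADP formation read by ADP-Glo luminescence relative to solvent control; IC50 from three data sets.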

human GST-CLK1 = biological target: T2, human GST-CLK1 (Homo sapiens, UniProt P49759); experiment: GST-CLK1 enzyme inhibition, ADP-Glo kinase assay; format: biochemical; conditions: ATP 10 μM, GST-CLK1 129-end
T2 construct: purified human GST-CLK1 (129-end, SignalChem) enzyme; purchased SignalChem
T2 sequence (P49759 129-484 limits assumed): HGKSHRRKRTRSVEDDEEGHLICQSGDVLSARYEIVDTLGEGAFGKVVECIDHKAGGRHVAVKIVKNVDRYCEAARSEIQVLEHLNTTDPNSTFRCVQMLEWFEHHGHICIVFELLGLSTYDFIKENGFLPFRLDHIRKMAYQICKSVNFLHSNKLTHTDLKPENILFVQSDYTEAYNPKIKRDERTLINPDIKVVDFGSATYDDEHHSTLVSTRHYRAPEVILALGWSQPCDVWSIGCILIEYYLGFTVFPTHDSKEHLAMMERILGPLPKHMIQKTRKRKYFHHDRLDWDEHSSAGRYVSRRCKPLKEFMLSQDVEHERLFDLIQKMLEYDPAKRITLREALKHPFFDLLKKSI
Outline: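 Human GST-CLK1 (129-end, 3 ng) reacted with substrate and 10 μM ATP for 1 h at 25° C in 40 mM Tris-HCl pH 7.4, 20 mM MgCl2, 0.5 mg/mL BSA, 50 μM DTT. ADP-Glo luminescence was normalised to solvent control; IC50 (nM) from 3 data sets.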

MDA-MB-231 cell line = experiment: Inhibition of proliferation of MDA-MB-231 cancer cells (Cell Titer-Glo); format: cell-based; conditions: Homo sapiens, 72 hours
Description: (§1) To evaluate an inhibitory effect on the proliferation of cancer cells, each of an MDA-MB-231 cell line (Korean Cell Line Bank #30026) and an MDA-MB-468 cell line as triple-negative breast cancer cell lines, and SHP-77 (ATCC #CRL-2195) as a small-cell lung cancer cell line was cultured in DMEM (HyClone #SH30243) or an RPMI medium (HyClone #SH3027.01) to analyze a cell growth rate. More specifically, a cell line was plated on a 96-well flat bottom plate (Corning #3903) at a density of 2,000 cells/100 μL per well, and then treated with 11 concentrations of the Example compound, a solution of which was diluted 3-fold so that a final concentration of the compound was 10.000000, 3.333333, 1.111111, 0.370370, 0.123457, 0.041152, 0.013717, 0.004572, 0.001524, 0.000508, and 0.000169 μM. After 72 hours, each of the culture media was treated with 100 μL of Cell Titer-Glo (Promega G7573), and then cultured at room temperature for 10 minutes. Then, a degree of luminescence was measured using a microplate reader. A GI50 value was calculated from the measured degree of luminescence using Prism (Version 8.2 GraphPad) software.

MDA-MB-468 cell line = experiment: Inhibition of proliferation of MDA-MB-468 cancer cells (Cell Titer-Glo); format: cell-based; conditions: Homo sapiens, MDA-MB-468, 72 hours
Description: as §1

LRRK2 = LRRK2 (Homo sapiens, UniProt Q5S007); experiment: LRRK2 enzyme inhibition, ADP-Glo kinase assay; format: biochemical; design: purchased Invitrogen PR8604B; conditions: ATP 10 μM
Chain of LRRK2 (Q5S007 970-2527 limits assumed): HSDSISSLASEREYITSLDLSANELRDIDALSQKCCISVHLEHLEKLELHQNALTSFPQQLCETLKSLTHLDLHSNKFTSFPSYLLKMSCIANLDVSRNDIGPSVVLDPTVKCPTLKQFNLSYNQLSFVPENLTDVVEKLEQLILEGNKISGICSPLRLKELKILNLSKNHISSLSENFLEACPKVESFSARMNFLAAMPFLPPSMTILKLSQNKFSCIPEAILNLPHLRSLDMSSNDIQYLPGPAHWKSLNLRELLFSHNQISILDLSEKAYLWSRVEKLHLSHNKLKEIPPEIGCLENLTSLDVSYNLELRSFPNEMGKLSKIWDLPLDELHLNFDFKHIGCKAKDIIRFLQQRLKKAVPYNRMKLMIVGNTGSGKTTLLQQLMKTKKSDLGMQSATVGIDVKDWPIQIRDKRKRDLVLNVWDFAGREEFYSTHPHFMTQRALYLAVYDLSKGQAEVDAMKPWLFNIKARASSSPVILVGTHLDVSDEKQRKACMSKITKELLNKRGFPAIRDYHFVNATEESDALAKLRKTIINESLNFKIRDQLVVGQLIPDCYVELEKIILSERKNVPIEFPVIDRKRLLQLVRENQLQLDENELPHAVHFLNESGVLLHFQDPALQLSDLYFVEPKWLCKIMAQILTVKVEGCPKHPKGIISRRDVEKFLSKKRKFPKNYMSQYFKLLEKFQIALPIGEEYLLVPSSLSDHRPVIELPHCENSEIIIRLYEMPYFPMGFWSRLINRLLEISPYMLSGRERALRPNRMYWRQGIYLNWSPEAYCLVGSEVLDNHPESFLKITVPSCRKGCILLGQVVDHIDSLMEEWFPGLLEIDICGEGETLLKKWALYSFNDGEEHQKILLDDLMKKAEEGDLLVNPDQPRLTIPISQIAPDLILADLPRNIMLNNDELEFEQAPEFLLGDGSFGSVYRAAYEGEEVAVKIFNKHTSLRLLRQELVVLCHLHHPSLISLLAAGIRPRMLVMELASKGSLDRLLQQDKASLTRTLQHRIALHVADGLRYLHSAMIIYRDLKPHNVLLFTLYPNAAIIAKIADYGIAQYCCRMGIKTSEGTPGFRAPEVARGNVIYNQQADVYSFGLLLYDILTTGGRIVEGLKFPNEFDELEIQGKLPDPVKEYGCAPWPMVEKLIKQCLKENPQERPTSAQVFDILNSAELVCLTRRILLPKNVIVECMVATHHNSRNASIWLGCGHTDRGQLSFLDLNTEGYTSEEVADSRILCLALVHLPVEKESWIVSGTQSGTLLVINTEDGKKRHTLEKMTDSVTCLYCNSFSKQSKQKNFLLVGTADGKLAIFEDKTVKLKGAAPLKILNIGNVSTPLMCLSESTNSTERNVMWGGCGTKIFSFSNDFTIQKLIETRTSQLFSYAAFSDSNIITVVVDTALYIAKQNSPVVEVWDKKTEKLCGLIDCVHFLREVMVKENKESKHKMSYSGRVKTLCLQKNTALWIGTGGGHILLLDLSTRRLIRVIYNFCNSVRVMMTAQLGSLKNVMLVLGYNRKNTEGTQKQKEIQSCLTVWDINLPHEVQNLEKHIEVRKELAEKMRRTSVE
Outline: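 Purified human LRRK2 (25 ng) with 10 μM ATP and 0.2 μg substrate in 40 mM Tris-HCl pH 7.4, 20 mM MgCl2, 0.5 mg/mL BSA, 50 μM DTT, 2 h at 25° C. ADP-Glo luminescence; 12-point compound series from 50 μM final; IC50 relative to solvent control.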

LRRK2 (G2019S) = LRRK2 (G2019S) (Homo sapiens, UniProt Q5S007, G2019S); experiment: LRRK2 G2019S enzyme inhibition, ADP-Glo kinase assay; format: biochemical; design: purchased SignalChem L10-12GG; conditions: ATP 25 μM
Chain of LRRK2 (G2019S) (Q5S007 970-2527 G2019S limits assumed): as the sequence (Q5S007 970-2527 limits assumed) above, with G1050S counted along it
Outline: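 Purified human LRRK2 G2019S (16 ng) with 25 μM ATP and 0.2 μg substrate, 2 h at 25° C. in Tris-HCl pH 7.4, MgCl2, BSA, DTT buffer; compounds at 12 final concentrations, 50 μM down to 0.000001024 μM. ADP-Glo luminescence versus solvent control gave IC50.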

| Compound | IC50 (human GST-DYRK1A) [nM] | IC50 (human GST-CLK1) [nM] | GI50 (MDA-MB-231 cell line) [nM] | GI50 (MDA-MB-468 cell line) [nM] | IC50 (LRRK2) [nM] | IC50 (LRRK2 (G2019S)) [nM] |
| --- | --- | --- | --- | --- | --- | --- |
| CCNc1nc(Nc2ccc(S(=O)(=O)N3CCC(N4CCOCC4)CC3)cc2OC)nc2[nH]cc(C#N)c12 [Example 82, 4-(ethylamino)-2-((2-methoxy-4-((4-morpholinopiperidin-1-yl)sulfonyl)phenyl)amino)-7H-pyrrolo[2,3-d]pyrimidine-5-carbonitrile] | 301 to 1000 | < 100 | < 50 | < 50 | < 100 | < 100 |
| COc1cc(S(=O)(=O)N2CCC(N3CCOCC3)CC2)ccc1Nc1nc(NC2CC2)c2c(C#N)c[nH]c2n1 [Example 88, 4-(cyclopropylamino)-2-((2-methoxy-4-((4-morpholinopiperidin-1-yl)sulfonyl)phenyl)amino)-7H-pyrrolo[2,3-d]pyrimidine-5-carbonitrile] | 101 to 300 | 101 to 300 | 101 to 300 | 51 to 100 | < 100 | < 100 |
| COc1cc(S(=O)(=O)N2CCC(N3CCOCC3)CC2)ccc1Nc1nc(NCC2CCCC2)c2c(C#N)c[nH]c2n1 [Example 95, 4-((cyclopentylmethyl)amino)-2-((2-methoxy-4-((4-morpholinopiperidin-1-yl)sulfonyl)phenyl)amino)-7H-pyrrolo[2,3-d]pyrimidine-5-carbonitrile] | 301 to 1000 | 301 to 1000 | 101 to 300 | 101 to 300 | < 100 | – |
| N#Cc1c[nH]c2nc(Nc3ccc(C(=O)N4CCOCC4)c4c3OCCO4)nc(NC3CCCC3)c12 [Example 126, 4-(cyclopentylamino)-2-((8-(morpholine-4-carbonyl)-2,3-dihydrobenzo[b][1,4]dioxin-5-yl)amino)-7H-pyrrolo[2,3-d]pyrimidine-5-carbonitrile] | 301 to 1000 | 301 to 1000 | 101 to 300 | 51 to 100 | < 100 | – |
| C=CCNc1nc(Nc2ccc(S(=O)(=O)N3CCOCC3)cc2OC)nc2[nH]cc(C#N)c12 [Example 362, 4-(allylamino)-2-((2-methoxy-4-(morpholino-sulfonyl)phenyl)amino)-7H-pyrrolo[2,3-d] pyrimidine-5-carbonitrile] | 301 to 1000 | 301 to 1000 | < 50 | < 50 | < 100 | < 100 |
| CCCNc1nc(Nc2ccc(S(=O)(=O)N3CCOCC3)cc2OC)nc2[nH]cc(C(F)(F)F)c12 [Example 372, N^2-(2-methoxy-4-(morpholino-sulfonyl)phenyl)-N^4-propyl-5-(trifluoromethyl)-7H-pyrrolo[2,3-d]pyrimidine-2,4-diamine] | 301 to 1000 | 301 to 1000 | 301 to 1000 | 301 to 1000 | 101 to 300 | < 100 |
| COc1cc(S(=O)(=O)N2CCOCC2)ccc1Nc1nc(N[C@@H]2CCOC2)c2c(C(F)(F)F)c[nH]c2n1 [Example 382, (R)-N^2-(2-methoxy-4-(morpholino-sulfonyl)phenyl)-N^4-(tetrahydrofuran-3-yl)-5-(trifluoromethyl)-7H-pyrrolo[2,3-d]pyrimidine-2,4-diamine] | 301 to 1000 | 301 to 1000 | 101 to 300 | 301 to 1000 | – | < 100 |
| COc1cc(S(=O)(=O)N2CCOCC2)ccc1Nc1nc(N[C@H]2CCOC2)c2c(C(F)(F)F)c[nH]c2n1 [Example 383, (S)-N^2-(2-methoxy-4-(morpholino-sulfonyl)phenyl)-N^4-(tetrahydrofuran-3-yl)-5-(trifluoromethyl)-7H-pyrrolo[2,3-d]pyrimidine-2,4-diamine] | 301 to 1000 | 301 to 1000 | 101 to 300 | 301 to 1000 | – | < 100 |
| COCCNc1nc(Nc2ccc(P3(=O)CCN(C4CC4)CC3)cc2OC)nc2[nH]cc(C(F)(F)F)c12 [Example 412, 1-cyclopropyl-4-(3-methoxy-4-((4-((2-methoxyethyl)amino)-5-(trifluoromethyl)-7H-pyrrolo[2,3-d]pyrimidin-2-yl)amino)phenyl)-1,4-azaphosphinane 4-oxide] | < 100 | < 100 | – | 301 to 1000 | < 100 | – |

Results, then the compound that gave them:

| IC50 (human GST-DYRK1A) [nM] | IC50 (human GST-CLK1) [nM] | GI50 (MDA-MB-231 cell line) [nM] | GI50 (MDA-MB-468 cell line) [nM] | IC50 (LRRK2) [nM] | IC50 (LRRK2 (G2019S)) [nM] | Compound |
| --- | --- | --- | --- | --- | --- | --- |
| 301 to 1000 | 101 to 300 | < 50 | < 50 | < 100 | < 100 | CCCNc1nc(Nc2ccc(S(=O)(=O)N3CCC(N4CCOCC4)CC3)cc2OC)nc2[nH]cc(C#N)c12 [Example 83, 2-((2-methoxy-4-((4-morpholinopiperidin-1-yl)sulfonyl)phenyl)amino)-4-(propylamino)-7H-pyrrolo[2,3-d]pyrimidin-5-carbonitrile] |
| 301 to 1000 | 101 to 300 | < 50 | < 50 | – | < 100 | COc1cc(S(=O)(=O)N2CCC(N3CCOCC3)CC2)ccc1Nc1nc(NC(C)C)c2c(C#N)c[nH]c2n1 [Example 85, 4-(isopropylamino)-2-((2-methoxy-4-((4-morpholinopiperidin-1-yl)sulfonyl)phenyl)amino)-7H-pyrrolo[2,3-d]pyrimidine-5-carbonitrile] |
| 101 to 300 | < 100 | 101 to 300 | < 50 | < 100 | < 100 | COCCNc1nc(Nc2ccc(S(=O)(=O)N3CCC(N4CCOCC4)CC3)cc2OC)nc2[nH]cc(C#N)c12 [Example 87, 2-((2-methoxy-4-((4-morpholinopiperidin-1-yl)sulfonyl)phenyl)amino)-4-((2-methoxyethyl)amino)-7H-pyrrolo[2,3-d]pyrimidine-5-carbonitrile] |
| – | 301 to 1000 | < 50 | < 50 | – | – | COc1cc(P(C)(C)=O)ccc1Nc1nc(NC2CCCCC2)c2c(C#N)c[nH]c2n1 [Example 117, 4-(cyclohexylamino)-2-((4-(dimethylphosphoryl)-2-methoxyphenyl)amino)-7H-pyrrolo[2,3-d]pyrimidine-5-carbonitrile] |
| 301 to 1000 | 301 to 1000 | 301 to 1000 | 301 to 1000 | < 100 | 101 to 300 | CC[C@H](C)Nc1nc(Nc2ccc(S(=O)(=O)N3CCC(N4CCOCC4)CC3)cc2OC)nc2[nH]cc(C(F)(F)F)c12 [Example 211, (S)-N^4-(sec-butyl)-N^2-(2-methoxy-4-((4-morpholinopiperidin-1-yl)sulfonyl)phenyl)-5-(trifluoromethyl)-7H-pyrrolo[2,3-d]pyrimidine-2,4-diamine] |
| 301 to 1000 | 301 to 1000 | < 50 | 51 to 100 | – | – | CC[C@H](C)Nc1nc(Nc2ccc(S(=O)(=O)N3CCC(N4CCOCC4)CC3)cc2OC)nc2[nH]cc(C#N)c12 [Example 263, (S)-4-(sec-butylamino)-2-((2-methoxy-4-((4-morpholinopiperidin-1-yl)sulfonyl)phenyl)amino)-7H-pyrrolo[2,3-d]pyrimidine-5-carbonitrile] |
| 301 to 1000 | 301 to 1000 | 51 to 100 | 101 to 300 | < 100 | – | CCNc1nc(Nc2ccc(S(=O)(=O)N3CCC(N4CCOCC4)CC3)c3c2OCC3)nc2[nH]cc(C(F)(F)F)c12 [Example 467, N^4-ethyl-N^2-(4-((4-morpholino-piperidin-1-yl)sulfonyl)-2,3-dihydrobenzo-furan-7-yl)-5-(trifluoromethyl)-7H-pyrrolo[2,3-d]pyrimidine-2,4-diamine] |
